Molecular target: Protein disulfide-isomerase (Homo sapiens) (UniProt P07237)
Test: inhibition of PDI-driven insulin aggregation – biochemical, turbidity, absorbance, cherry-picked samples, dose response (AID 602350);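 further: potency is for inhibitors that reduce insulin aggregation absorbance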
Conditions: recombinant PDI insulin aggregation, absorbance 650 nm, 90 min

Chain of Protein disulfide-isomerase (Homo sapiens) (P07237 whole entry, looked up): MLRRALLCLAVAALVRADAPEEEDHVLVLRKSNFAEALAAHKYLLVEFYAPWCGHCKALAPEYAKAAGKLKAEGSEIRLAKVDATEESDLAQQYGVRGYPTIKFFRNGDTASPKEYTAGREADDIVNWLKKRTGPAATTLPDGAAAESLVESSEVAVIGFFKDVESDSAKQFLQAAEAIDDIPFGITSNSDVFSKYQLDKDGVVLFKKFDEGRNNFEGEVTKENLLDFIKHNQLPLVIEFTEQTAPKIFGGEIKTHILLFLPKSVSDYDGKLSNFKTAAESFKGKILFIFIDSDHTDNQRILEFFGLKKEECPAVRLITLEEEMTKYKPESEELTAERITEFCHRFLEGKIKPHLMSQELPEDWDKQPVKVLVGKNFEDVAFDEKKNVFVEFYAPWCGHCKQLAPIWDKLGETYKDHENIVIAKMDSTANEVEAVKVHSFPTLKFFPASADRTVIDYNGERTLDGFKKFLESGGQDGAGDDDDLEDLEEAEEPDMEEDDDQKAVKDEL

AC50: 19.5 µM
SMILES: Cc1noc(C)c1S(=O)(=O)Nc1ccc2c(c1)CC(=O)N([C@@H](C)CO)C[C@@H](C)[C@H](CN(C)S(=O)(=O)c1ccc(F)cc1)O2

From PubChem BioAssay AID602350 (Broad Institute, 2012)
